Measurements as given in publication PMC8924211 (Nature Communications, 2022).
Substitutions are numbered along the chain they refer to.

Tests used:
[1] = target: T1, GAL2R mutants (Homo sapiens, UniProt O43603, Y271A); experiment: Calcium assay, HEK293/Gα16 cells, GAL2R mutants; format: cell-based; settings: GAL2R Y2717.32A
T1 construct: expressed in transfected cells; host or cells: HEK293
T1 sequence (O43603 1-387 Y271A): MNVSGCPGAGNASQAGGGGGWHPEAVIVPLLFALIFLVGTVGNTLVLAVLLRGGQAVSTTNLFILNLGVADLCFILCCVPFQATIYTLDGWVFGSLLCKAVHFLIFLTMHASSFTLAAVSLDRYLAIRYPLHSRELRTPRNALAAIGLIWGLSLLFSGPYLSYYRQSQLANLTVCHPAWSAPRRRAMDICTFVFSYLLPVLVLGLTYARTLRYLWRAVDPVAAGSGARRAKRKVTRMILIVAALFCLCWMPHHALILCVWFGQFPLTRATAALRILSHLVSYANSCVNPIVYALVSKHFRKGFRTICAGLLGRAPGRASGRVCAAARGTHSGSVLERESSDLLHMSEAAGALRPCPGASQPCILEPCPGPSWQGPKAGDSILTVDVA

[2] = target: GAL1R (Homo sapiens, UniProt P47211); experiment: Calcium assay, HEK293/Gα16 cells, WT GAL1R; format: cell-based; settings: HEK293/Gα16, calcium response (Supplementary Fig. 9a)
[3] = tested on: GAL2R over GAL1R; settings: cross-reactivity to galanin receptors; cited from earlier work
From the text: In contrast, L^4P contacts with equivalent ECL2 residues with weaker hydrophobicity (L169^ECL2, A170^ECL2, and L172^ECL2) in GAL2R (Fig. 3e, Supplementary Fig. 4b). The structural observation is coincident with our peptide truncation assay.

[4] = target: T2, GAL2R (Homo sapiens, UniProt O43603); experiment: Calcium assay, HEK293/Gα16 cells, WT GAL2R; format: cell-based
T2 construct: expressed in transfected cells; host or cells: HEK293/Gα16
T2 sequence (O43603 1-387): T1 sequence (O43603 1-387 Y271A) with A271Y

[5] = response of 100 μM spexin compared to WT, mean ± S.E.M.

Chain of GAL1R (P47211 whole entry): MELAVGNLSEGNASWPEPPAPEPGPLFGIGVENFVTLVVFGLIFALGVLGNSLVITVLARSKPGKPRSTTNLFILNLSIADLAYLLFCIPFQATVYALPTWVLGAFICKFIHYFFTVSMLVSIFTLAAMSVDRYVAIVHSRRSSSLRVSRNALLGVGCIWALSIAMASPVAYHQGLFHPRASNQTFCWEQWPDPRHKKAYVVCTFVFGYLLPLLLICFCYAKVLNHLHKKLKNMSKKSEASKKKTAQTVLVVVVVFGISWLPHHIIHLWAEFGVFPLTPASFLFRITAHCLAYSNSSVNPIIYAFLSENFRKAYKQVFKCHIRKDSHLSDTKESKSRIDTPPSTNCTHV

- Emax [1, 5]: 22.23±2.2%
- EC50 ([1]; spexin, replicate 1): 5958 nM
- Emax ([1]; spexin, replicate 1): 23.9745%
- EC50 ([1]; spexin, replicate 2): 1581 nM
- Emax ([1]; spexin, replicate 2): 17.9395%
- EC50 ([1]; spexin, replicate 3): 751.8 nM
- Emax ([1]; spexin, replicate 3): 24.7776%
- activation of GAL1R [2]: did not activate
- Emax [4, 5]: 100±4.9%
- EC50 ([4]; spexin, replicate 1): 326.8 nM
- Emax ([4]; spexin, replicate 1): 101.879%
- EC50 ([4]; spexin, replicate 2): 177.5 nM
- Emax ([4]; spexin, replicate 2): 107.462%
- EC50 ([4]; spexin, replicate 3): 81.38 nM
- Emax ([4]; spexin, replicate 3): 90.6585%
Substance: spexin
- affinity for GALR2 versus GALR1 [3]: high affinity for GALR2 but not GALR1
